Data: patent publication US10144756B2, “Stable solid forms of regadenoson” (Euticals S.p.A., priority 2013, dated 2018)
Like-named read-outs stand apart in the source and are kept apart here. One block for each compound: values may come before it.

Assays:
[1] = U.S. Pat. No. 8,106,183 / WO2012149196, cited from earlier work
[2] = HPLC stability of solid forms stored at 80° C. in inert atmosphere; conditions: for HPLC stability data (chromatographic purity): 80° C. in inert atmosphere
[3] = Thermal treatment of polymorphic form A at 190-200° C. (prior-art route to amorphous form); format: physicochemical; conditions: thermal treatment at 190-200° C.
Description: In U.S. Pat. No. 8,106,183 the method of preparation of an amorphous form of Regadenoson is described by heating polymorphic form A at 200° C.; this solid state, differently by polymorphic forms A-C, was not described by the authors by an X-ray diffraction spectrum in order to identify possible characteristic halo-peaks (broad peaks). This amorphous form was prepared according to U.S. Pat. No. 8,106,183 by heating the polymorphic form A over the melting point value of this substance (that for polymorphic form A is 194.5° C.). This method is not industrially applicable and leads to the formation of several side products. […] To the best of our knowledge, this is the only described method for the preparation of amorphous Regadenoson.

[4] = HPLC stability of solid forms stored at 90% RH and 20-25° C.; conditions: for HPLC stability data (chromatographic purity): 90% RH and 20-25° C.
[5] = not given; remark: listed apart in the source

SMILES: CNC(=O)c1cnn(-c2nc(N)c3ncn([C@@H]4O[C@H](CO)[C@@H](O)[C@H]4O)c3n2)c1 [Form A, (1-{9-[(4S,2R,3R,5R)-3,4-dihydroxy-5-(hydroxymethyl)oxolan-2-yl]-6-aminopurin-2yl}pyrazol-4-yl)-N-methylcarboxamide, reference compound]
stability of the solid form as described in the literature ([1]; listed as Regadenoson Form A): more stable than polymorphs B and C | HPLC stability data (chromatographic purity) ([2]; time 0 hours): 99.5% | HPLC stability data (chromatographic purity) ([2]; time 72 hours): 99.5% | HPLC stability data (chromatographic purity) ([2]; time 96 hours): 99.5% | decrease of chromatographic purity [3]: about 30% | change in the color of the sample ([3]; form A is white before): the color changes to brown | HPLC stability data (chromatographic purity) ([4]; time 0 hours): 99.5% | HPLC stability data (chromatographic purity) ([4]; time 96 hours): 99.5%

SMILES: CNC(=O)c1cnn(-c2nc(N)c3ncn([C@@H]4O[C@H](CO)[C@@H](O)[C@H]4O)c3n2)c1 [Form D]
stability of the solid form as described in the literature [1]: stable under inert conditions

SMILES: CNC(=O)c1cnn(-c2nc(N)c3ncn([C@@H]4O[C@H](CO)[C@@H](O)[C@H]4O)c3n2)c1 [Form E]
HPLC stability data (chromatographic purity) (0 h): 99.6% | HPLC stability data (chromatographic purity) (96 h): 99.7% | HPLC stability data (chromatographic purity) ([5]; 0 h): 99.6% | HPLC stability data (chromatographic purity) ([5]; 72 h): 99.4% | HPLC stability data (chromatographic purity) ([5]; 96 h): 99.6%

SMILES: CNC(=O)c1cnn(-c2nc(N)c3ncn([C@@H]4O[C@H](CO)[C@@H](O)[C@H]4O)c3n2)c1 [Polymorph C]
stability of the solid form as described in the literature [1]: unstable at high temperatures

The next lines start with results.

HPLC stability data (chromatographic purity) (0 h): 99.8% | HPLC stability data (chromatographic purity) (96 h): 99.8% | HPLC stability data (chromatographic purity) ([5]; 0 h): 99.8% | HPLC stability data (chromatographic purity) ([5]; 72 h): 99.7% | HPLC stability data (chromatographic purity) ([5]; 96 h): 99.7%
SMILES: CNC(=O)c1cnn(-c2nc(N)c3ncn([C@@H]4O[C@H](CO)[C@@H](O)[C@H]4O)c3n2)c1 [Form F, (1-{9-[(4S,2R,3R,5R)-3,4-dihydroxy-5-(hydroxymethyl)oxolan-2-yl]-6-aminopurin-2yl}pyrazol-4-yl)-N-methylcarboxamide]

HPLC stability data (chromatographic purity) (0 h): 99.8% | HPLC stability data (chromatographic purity) (96 h): 99.8% | HPLC stability data (chromatographic purity) ([5]; 0 h): 99.8% | HPLC stability data (chromatographic purity) ([5]; 72 h): 99.8% | HPLC stability data (chromatographic purity) ([5]; 96 h): 99.8%
SMILES: CNC(=O)c1cnn(-c2nc(N)c3ncn([C@@H]4O[C@H](CO)[C@@H](O)[C@H]4O)c3n2)c1 [Form G, (1-{9-[(4S,2R,3R,5R)-3,4-dihydroxy-5-(hydroxymethyl)oxolan-2-yl]-6-aminopurin-2yl}pyrazol-4-yl)-N-methylcarboxamide]

HPLC stability data (chromatographic purity) ([2]; time 0 hours): 99.7% | HPLC stability data (chromatographic purity) ([2]; time 72 hours): 99.7% | HPLC stability data (chromatographic purity) ([2]; time 96 hours): 99.7% | stability to heating ([2]; 80° C., protected atmosphere / dry conditions, up to 96 hours): stable to the heating | HPLC stability data (chromatographic purity) ([4]; time 0 hours): 99.7% | HPLC stability data (chromatographic purity) ([4]; time 96 hours): 99.7%
SMILES: CNC(=O)c1cnn(-c2nc(N)c3ncn([C@@H]4O[C@H](CO)[C@@H](O)[C@H]4O)c3n2)c1 [Halo Amorphous, (1-{9-[(4S,2R,3R,5R)-3,4-dihydroxy-5-(hydroxymethyl)oxolan-2-yl]-6-aminopurin-2yl}pyrazol-4-yl)-N-methylcarboxamide]
formation of degradation products ([2]; dry conditions, 80° C. up to 96 hours): does not give origin to degradation products | formation of degradation products ([4]; exposed to moisture, 25° C./90% RH up to 96 hours): does not give origin to degradation products
